Key:
[1] = tested on: retinal ischemia in Wistar rats; test: Cresyl violet stained retinal thickness after retinal ischemia/reperfusion; type: in vivo, rat; conditions: n=10, mean±SE
Description: Emodin was purchased from Sigma-Aldrich (E7881; 90%; storage at 2-8° C.; from Frangula bark; St. Louis, Mo., United States). Drug administration for different procedures, namely ERG, fluorogold RGC labelling, cresyl violet retinal staining and Western blot assays, were described in Tables 3 to 6. Vehicle or emodin (5 μL) was administered via an intravitreous injection route so that these agents were then able to be directly diffused to the target. Emodin was dissolved in vehicle (DMSO:distilled water=1:3). The defined final cellular concentrations of administered drug were 0.25 or 0.5 μM, which were achieved after 40 times dilution from the stock concentrations, namely 10 or 20 μM, based on an arbitrary definition of the vitreous volume as 200 μL. To test a wider range of dose-response, 4 μM of emodin was thus added in the animal experiments. The Vehicle+IR and Emo+IR groups (pre-ischemic administration of emodin 4, 10 or 20 μM) were subjected to following the experimental procedures; these were initial pre-ischemic intravitreous injection (vehicle or emodin), retinal ischemia induction 1 day later, and sacrifice of the animal on the following day to allow the various post-mortem procedures except ERG. In the post-ischemic treatment group, in order to decrease the number of animals used, the present invention only used a single emodin concentration of 20 μM. Furthermore, intravitreous emodin was given 1 day after initial retinal ischemia induction and animals were sacrificed the following day to allow the performance of various post-mortem procedures as mentioned above. The IOP procedure used raised the IOP and was designed to cause retinal ischemia in Wistar rats and simulate ischemic retinal disorders. The rats were anesthetized and constrained with a sterotaxic frame. A 30-gauge needle connected to an elevated saline bottle was attached to anterior chamber of the rat's eye. The pressure exerted by the saline inside the bottle was controlled to 120 mmHg. This procedure was conducted for 1 hour. Successful retinal ischemia induction was confirmed by observing that the whitening of the retina took place. Throughout the experiments, the animals were kept on heat mats to maintain their temperature. The sham procedure involved keeping the pressure in saline bottle 0 mmHg. After the aforementioned sacrifice of rats, the animals underwent intracardial perfusion with normal saline. The eyeballs were then enucleated, fixed with 4% paraformaldehyde for 1 day at 4° C., dehydrated with ethanol, embedded in paraffin (Tissue-Tek TEC 5; Sakura) and sectioned into 5 μm thickness slices. The sectioned samples were then stained with cresyl violet and examined using a light microscope (Leica). All sectioned retinal samples were photographed under the same magnification (Ilford Pan-F plus film, 50 ASA). The thickness of a retina was determined by sectioning retinal samples at the same distance (1.5 mm from the disc). To evaluate the degree of the injury caused by retinal ischemia, the whole retinal thickness [from the inner limiting membrane (ILM) to the retinal pigment epithelium (RPE) layer] and the inner retinal thickness [from the ILM to the inner nuclear layer (INL)] were measured. All the measurements were carried out by an expert who was unaware of the experimental conditions used to treat the samples.

RGC-5 cells = test: cells; type: cell-based; conditions: Mus musculus, RGC5, read-out: Cell viability (% of control)
Description: RGC-5 cells have been reported to be not transformed rat RGCs, but rather are mouse retinal neuronal precursor cells. OGD was established by incubating RGC-5 cells in Dulbecco's modified Eagle medium (DMEM; Thermo Fisher Scientific Inc.) without glucose at 37° C. under ischemia simulation conditions, namely 1% O2 (measured using a Penguin Incubator; Astec Company, Kukuoka, Japan), 94% N2 and 5% CO2. Various experimental groups (Table 1) were investigated. […]
Mitochondrial nicotinamide adenine dinucleotide phosphate dependent oxidoreductases are able to reduce MTT to produce formazan and thus increased levels of dark purple formazan that are associated with greater cell viability. […] After shaking, the optical density (OD) of the dissolved formazan was measured using an ELISA plate reader (Synergy H1 Multi-Mode Reader BioTek Instruments) at 562 nm. Cell viability was calculated as the change in OD value compared to the untreated control (100%).
The cultured cells were used to identify the effective dose(s) of the tested agent emodin. The effect of emodin (0.25 and 0.5 μM) on the cultured cells was evaluated utilizing MTT cell viability assays and a cellular ischemia simulation model, namely OGD, for 1 day. […]

[2] = Emo10+IR: pre-ischemic intravitreous 10 μM emodin
[3] = Emo20+IR: pre-ischemic intravitreous 20 μM emodin
[4] = IR+Emo20: post-ischemic intravitreous 20 μM emodin

Cc1cc(O)c2c(c1)C(=O)c1cc(O)cc(O)c1C2=O [emodin, 6-methyl-1,3,8-trihydroxyanthraquinone]
inner retina thickness ([1]; Emo4+IR: pre-ischemic intravitreous 4 μM emodin, Sham 79.90, Vehicle+IR 20.97): 38.60±1.01 μm | whole retina thickness ([1]; Emo4+IR: pre-ischemic intravitreous 4 μM emodin, Sham 186.50, Vehicle+IR 71.80): 87.40±0.60 μm | inner retina thickness [1, 2]: 70.05±0.60 μm | whole retina thickness [1, 2]: 153.20±1.48 μm | inner retina thickness [1, 3]: 70.65±2.06 μm | whole retina thickness [1, 3]: 170.10±0.10 μm | inner retina thickness [1, 4]: 69.65±0.68 μm | whole retina thickness [1, 4]: 125.45±1.68 μm | viability at 0.25 µM (RGC-5 cells): 43.8 ± 3.75% | viability at 0.5 µM (RGC-5 cells): 47.5 ± 3.99%

Reference: patent publication US20210393547A1, “USE OF EMODIN IN TREATING RETINAL ISCHEMIA OR A DISEASE, CONDITION, OR DISORDER ASSOCIATED WITH RETINAL ISCHEMIA” (priority 2020, published 2021)
